Test results taken from patent US20090172831A1, “Methods for the production of plants resistant to HPPD herbicides” (Syngenta Limited, priority 2000, published 2009).
Several values for one entry are separate records, joined by “and”; a condition that tells them apart may be missing. Equal values may be shown once. Read-outs that look alike come from different tables or passages of the source.

Key:
[1] = molecular target: T1, Arabidopsis HPPD (Arabidopsis thaliana, UniProt P93836); experiment: Dissociation of enzyme/inhibitor complexes by exchange with 14C-labelled inhibitor (koff; Kd = koff/kon); format: binding
T1 construct: made in house; host or cells: E. coli BL21 (DE3) codon+ RP
T1 sequence (P93836 1-445): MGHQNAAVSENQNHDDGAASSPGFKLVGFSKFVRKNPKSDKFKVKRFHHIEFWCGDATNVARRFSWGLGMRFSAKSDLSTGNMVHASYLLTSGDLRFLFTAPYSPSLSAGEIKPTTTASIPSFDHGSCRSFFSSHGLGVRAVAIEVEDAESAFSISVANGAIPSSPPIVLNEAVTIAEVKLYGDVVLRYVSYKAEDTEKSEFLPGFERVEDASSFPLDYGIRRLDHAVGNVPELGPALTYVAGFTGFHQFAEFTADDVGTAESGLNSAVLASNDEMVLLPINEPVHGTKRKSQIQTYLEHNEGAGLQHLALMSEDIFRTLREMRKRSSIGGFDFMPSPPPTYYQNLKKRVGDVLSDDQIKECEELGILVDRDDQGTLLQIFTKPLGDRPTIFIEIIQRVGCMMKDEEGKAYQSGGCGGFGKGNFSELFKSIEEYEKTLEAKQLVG
Procedure: It will be appreciated that many suitable methods known in the art for determining such low koff values are suitable for working the current invention. These include measuring rates of exchange of radio or otherwise labelled inhibitors either with or away from the enzyme inhibitor complex. For example enzyme inhibitor complexes can readily be prepared by incubating HPPD preparations with labelled or unlabelled inhibitor and then, after suitable periods, optionally rapidly separating the thus formed enzyme inhibitor complex from excess inhibitor by any suitable method such as ultrafiltration, binding to filters or exchange down a gel filtration column. Exchange reactions with the, thus prepared enzyme inhibitor complex is then initiated by addition of, as appropriate, excess labelled or unlabelled inhibitor. […] Many methods such as radiometric, fluorimetric, NMR, fluorescence depolarisation, EPR, Mossbauer, UV/VIS spectrophotometry etc. or phonon resonance can, in principle, be used to monitor the enzyme/ligand exchange reactions and, particularly in this case where the enzyme contains an iron atom at the ligand binding site. Optionally, the monitoring method may be continuous (as, for example, with scintillation proximity/bead-based methods) or, discontinuous, based upon collection of data at various timepoints wherein samples are removed and the bound and unbound label components rapidly separated and quantitated.
(§1) Values of koff can suitably be calculated by computer fitting based upon is numerical integration of the exchange data along with information on the active-site concentration of HPPD and upon kon values obtained as described below. […] In any event, koff values are always here calculated from the rate of the major slow exchange reaction.
^14C mesotrione is of specific activity 1.12 GBq/mmol. […] Following this initial binding reaction, exchange reactions are initiated by addition of cold mesotrione to a final concentration of 60 μM and 200 μl aliquots removed at various times to rapid chromatography down a NAP5 gel filtration column equilibrated in 50 mM BTP at pH 7 containing 0.1 M KCl, separation into fractions containing protein-bound or free radiolabel and liquid scintillation counting.
Nevertheless, here, for practical purposes, koff values are always here calculated from the rate of the major slow exchange reaction.
Not all test inhibitors are readily available in a radiolabelled form.

[2] = molecular target: T2, Wheat HPPD (Triticum aestivum, UniProt A0A3B6NLC6); experiment: as above; format: binding
T2 sequence (A0A3B6NLC6 entry or part of it): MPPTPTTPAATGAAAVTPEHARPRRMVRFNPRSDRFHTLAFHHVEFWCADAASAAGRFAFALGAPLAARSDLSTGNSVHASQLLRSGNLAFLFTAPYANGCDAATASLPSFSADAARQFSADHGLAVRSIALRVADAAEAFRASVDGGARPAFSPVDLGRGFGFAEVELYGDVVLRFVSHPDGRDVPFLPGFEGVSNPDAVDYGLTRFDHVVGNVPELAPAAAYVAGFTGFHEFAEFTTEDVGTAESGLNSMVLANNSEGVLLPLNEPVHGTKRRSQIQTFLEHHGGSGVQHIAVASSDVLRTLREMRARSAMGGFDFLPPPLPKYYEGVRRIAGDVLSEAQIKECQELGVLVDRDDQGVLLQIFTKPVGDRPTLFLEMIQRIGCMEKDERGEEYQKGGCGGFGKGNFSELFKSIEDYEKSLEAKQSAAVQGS
Description: Herbicidal inhibitors of HPPD are found here to have generally low values of koff (in the range less than 0.0003 s^−1, often less than 0.000001 s^−1). It will be appreciated that many suitable methods known in the art for determining such low koff values are suitable for working the current invention. These include measuring rates of exchange of radio or otherwise labelled inhibitors either with or away from the enzyme inhibitor complex. For example enzyme inhibitor complexes can readily be prepared by incubating HPPD preparations with labelled or unlabelled inhibitor and then, after suitable periods, optionally rapidly separating the thus formed enzyme inhibitor complex from excess inhibitor by any suitable method such as ultrafiltration, binding to filters or exchange down a gel filtration column. Exchange reactions with the, thus prepared enzyme inhibitor complex is then initiated by addition of, as appropriate, excess labelled or unlabelled inhibitor. HPPD preparations suitable for use in the methods of the current invention are relatively unpurified, buffer-exchanged, supernatant fractions of spun crude lysates of E. coli strains engineered to express the HPPD enzyme of interest at a level of, typically, about 0.25-10% of the total soluble protein. Many methods such as radiometric, fluorimetric, NMR, fluorescence depolarisation, EPR, Mossbauer, UV/VIS spectrophotometry etc. or phonon resonance can, in principle, be used to monitor the enzyme/ligand exchange reactions and, particularly in this case where the enzyme contains an iron atom at the ligand binding site. Optionally, the monitoring method may be continuous (as, for example, with scintillation proximity/bead-based methods) or, discontinuous, based upon collection of data at various timepoints wherein samples are removed and the bound and unbound label components rapidly separated and quantitated.
as §1, with “reaction. It will be appreciated that within the scope of the current invention many methods of making the desired kinetic comparisons are possible without explicit or rigorous determination of off rates but, based upon the same underlying principle, will achieve the same selection result.” for “reaction.”
The dissociation rates (off rates) of inhibitors selected from Formula 1 and/or 2 and/or 3 and/or 4 from the complexes that they form with test and control HPPD enzymes are suitably measured in a number of ways. Thus, for example, the rates of dissociation of mesotrione, a compound selected from Formula 1 and of the diketonitrile of isoxaflutole, a compound selected from Formula 3 from their respective complexes with, test, wheat HPPD and with, control, Arabidopsis HPPD are compared. The method and results from a typical test are as follows.
^14C mesotrione is of specific activity 1.12 GBq/mmol. This is ˜95% pure radiochemically by TLC and based upon the proportion of material tight-binding to HPPD. Arabidopsis and, (test), wheat HPPD are each diluted to a concentration of ˜0.45 and 0.54 μM, respectively into 1.6 ml of 50 mM Bis-Tris propane buffer at pH 7.0 containing 25% glycerol, 25 mM sodium ascorbate and 3 mg/l of bovine catalase (Sigma C3155˜50,000 units/mg) containing […] ^14C mesotrione and left to react at 25 C for 2.5-3 h. Following this initial binding reaction, exchange reactions are initiated by addition of cold mesotrione to a final concentration of 60 μM and 200 μl aliquots removed at various times to rapid chromatography down a NAP5 gel filtration column equilibrated in 50 mM BTP at pH 7 containing 0.1 M KCl, separation into fractions containing protein-bound or free radiolabel and liquid scintillation counting. […]

[3] = molecular target: T2, Wheat HPPD; experiment: kon from HPLC enzyme assay (progressive inhibition / timed pre-reaction); format: biochemical; details: for observed first order decay rate constant: 100 μM HPP (no inhibitor: 0.016)
Procedure: Assay buffer is 105 μM (or as appropriate) hydroxyphenylpyruvate (HPP) is freshly made up in 50 mM Bis-Tris-propane buffer at pH 7.0. Dilution buffer is 50 mM Bis-Tris-propane buffer at pH 7.0 containing 25 mM sodium ascorbate and 3.8 mg/l of bovine catalase (Sigma C3155˜50,000 units/mg). HPPD enzyme, freshly unfrozen from storage is kept at ice temperature and diluted, also at ice temperature, to an appropriate concentration in dilution buffer (typically, 2-8 μM) before use. Assays are started by addition of 5 μl of diluted enzyme to 100 μl of assay buffer at 25 C in an eppendorf centrifuge and stopped, at a series of times between 0 and 90 s by addition of 20 μl of 25% perchloric acid and whirlimixing. 80-100 μl of the contents of each eppendorf tube is transferred to an HPLC vial prior to separation by Reverse Phase HPLC. For HPLC, 40 μl is loaded at 1.5 ml/min onto an Aqua C18 5μ 75×4.6 mm column (silica is endcapped) equilibrated with 5.5% acetonitrile, 0.1% trifluoroacetic acid (buffer A) using an HP 1100 HPLC system. The column is eluted, also at 1.5 ml/min, using a 2 minute wash with buffer A, followed by a 2 min wash with a 30/70 mixture of buffer A/100% acetonitrile followed by a further 3.5 minute wash with buffer A (in between uses the column is stored in 65% acetonitrile/water). The elution of HGA (homogentisic acid) and HPP(hydroxyphenylpyruvate) is monitored using a UV flow cell and quantitated via integration of peak absorbance at 292 nm. HGA elutes at around 2 minutes and HPP elutes later. A standard set of concentrations of HGA are used to provide a standard curve in order to calibrate the UV absorbance of the HGA peak versus HGA concentration.
In FIG. 3 assays containing 100 μM HPP substrate were started with addition of wheat HPPD to a final concentration of ˜19 nM and stopped at the times indicated.
In a more direct assay-based method for measuring kon values, test HPPD enzyme is reacted with inhibitor for a range of times and then the inhibition reaction is effectively stopped by addition of a high concentration of the (competitive) substrate HPP. […]

[4] = Kd, value obtained + glycerol (in parentheses)
[5] = Kd, without glycerol, Kd = koff/kon
[6] = dissociation constant (Kd), in water at pH 7.0 and at 25 C

| Compound | Kd [1, 4] [nM] | Kd [1, 5] [nM] | Kd [2, 4] [nM] | Kd [2, 5] [nM] | Kd [2, 6] [nM] | Kd [1] [nM] | ratio Kd2/Kd4, structure II to structure VII [1] | ratio koff2/koff4, structure II to structure VII [1] | koff ([1]; without 25% v/v glycerol, exchange with 14C mesotrione) [s⁻¹] | koff ([1]; − glycerol) [s⁻¹] | ratio Kd2/Kd4, structure II to structure VII [2] | ratio koff2/koff4, structure II to structure VII [2] | koff ([2]; in water at pH 7.0 and at 25 C, values of Table 3 restated) [s⁻¹] | koff ([2]; pH 7, in water at pH 7.0 and at 25 C, values of Table 3 restated) [s⁻¹] | koff ([2]; − glycerol) | kon [3] [M⁻¹ s⁻¹] | observed first order decay rate constant ([3]; 2.5 μM inhibitor) [s⁻¹] | observed first order decay rate constant ([3]; 10 μM inhibitor) [s⁻¹] |
| --- | --- | --- | --- | --- | --- | --- | --- | --- | --- | --- | --- | --- | --- | --- | --- | --- | --- | --- |
| CS(=O)(=O)c1ccc(C(=O)C2C(=O)CCCC2=O)c([N+](=O)[O-])c1 [Structure I, 2-(Nitro-4-methanesulphonylbenzoyl)-cyclohexane-1,3-dione, reference compound] | 0.021 | 0.014 | 6.33 | 7.41 | 6.5 to 7.5 |  |  |  |  |  |  |  |  |  |  |  |  |  |
| Cc1nc(C(F)(F)F)ccc1C(=O)C1C(=O)C2CCC(C2)C1=O (centres unmarked) [Structure II] |  |  |  | 6.73 | 6.5 to 7.5 | 0.11 | 3.4 | 11 and 8.6 | ~1.16e-05 | 1.16e-05 | 38 | 30 and 42 | 0.00035 | 0.00025 | 0.00025 s⁻¹ and 0.00035 s⁻¹ | 48000 to 57200 | 0.029 | 0.06 |
